{"source": "paper PMC7377474", "about": "“Preclinical characterization of CPL302-253, a selective inhibitor of PI3Kδ, as the candidate for the inhalatory treatment and prevention of Asthma” (PLoS ONE, 2020)", "key": {"HTR2B": {"biological_target": "T1, HTR2B (Homo sapiens, UniProt P41595)", "T1 construct": "purchased DiscoverX (Eurofins) SafetyScan44", "T1 sequence (P41595 whole entry)": "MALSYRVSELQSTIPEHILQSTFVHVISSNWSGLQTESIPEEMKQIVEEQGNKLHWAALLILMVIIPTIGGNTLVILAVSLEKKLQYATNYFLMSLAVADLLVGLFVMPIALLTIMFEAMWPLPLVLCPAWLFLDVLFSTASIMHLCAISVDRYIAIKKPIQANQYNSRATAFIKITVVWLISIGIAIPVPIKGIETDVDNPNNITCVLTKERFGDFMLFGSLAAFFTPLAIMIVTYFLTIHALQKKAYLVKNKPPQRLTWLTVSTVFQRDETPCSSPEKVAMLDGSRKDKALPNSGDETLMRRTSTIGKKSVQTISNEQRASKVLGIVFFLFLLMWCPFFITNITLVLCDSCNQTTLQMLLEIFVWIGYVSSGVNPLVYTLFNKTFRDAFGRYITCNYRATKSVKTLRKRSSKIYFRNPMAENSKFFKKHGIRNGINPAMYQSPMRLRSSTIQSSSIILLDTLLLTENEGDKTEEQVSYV", "assay": "SafetyScan44", "format": "cell-based", "conditions": "10 μM", "experimental": "(§1) SafetyScan44 assay was performed by DiscoverX according to service provider’s protocol."}, "GABAA": {"system": "GABAA", "assay": "SafetyScan44", "format": "cell-based", "conditions": "10 μM", "experimental": "as §1"}, "HRH2": {"biological_target": "T2, HRH2 (Homo sapiens, UniProt P25021)", "T2 construct": "purchased DiscoverX (Eurofins) SafetyScan44", "T2 sequence (P25021 whole entry)": "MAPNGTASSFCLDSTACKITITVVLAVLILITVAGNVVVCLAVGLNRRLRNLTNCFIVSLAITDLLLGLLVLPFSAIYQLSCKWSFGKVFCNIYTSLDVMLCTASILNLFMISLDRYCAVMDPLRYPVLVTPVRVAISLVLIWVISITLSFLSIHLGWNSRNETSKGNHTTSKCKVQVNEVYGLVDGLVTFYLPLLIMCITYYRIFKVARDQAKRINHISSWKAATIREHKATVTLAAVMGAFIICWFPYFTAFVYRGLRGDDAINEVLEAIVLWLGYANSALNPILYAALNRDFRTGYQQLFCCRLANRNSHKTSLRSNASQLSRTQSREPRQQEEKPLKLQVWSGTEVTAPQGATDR", "assay": "SafetyScan44", "format": "cell-based", "conditions": "10 μM", "experimental": "as §1"}, "ADRB2": {"biological_target": "T3, ADRB2 (Homo sapiens, UniProt P07550)", "T3 construct": "purchased DiscoverX (Eurofins) SafetyScan44", "T3 sequence (P07550 whole entry)": "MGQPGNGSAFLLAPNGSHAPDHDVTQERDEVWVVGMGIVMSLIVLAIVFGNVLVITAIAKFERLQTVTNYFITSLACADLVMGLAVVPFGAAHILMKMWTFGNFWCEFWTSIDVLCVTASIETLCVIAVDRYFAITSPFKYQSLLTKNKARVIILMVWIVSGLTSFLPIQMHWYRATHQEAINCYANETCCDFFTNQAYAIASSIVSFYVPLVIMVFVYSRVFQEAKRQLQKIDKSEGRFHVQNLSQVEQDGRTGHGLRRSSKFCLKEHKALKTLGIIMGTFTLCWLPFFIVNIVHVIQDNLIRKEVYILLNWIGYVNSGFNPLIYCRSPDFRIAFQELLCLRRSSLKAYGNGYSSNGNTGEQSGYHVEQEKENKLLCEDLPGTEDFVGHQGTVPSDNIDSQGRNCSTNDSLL", "assay": "SafetyScan44", "format": "cell-based", "conditions": "10 μM", "experimental": "as §1"}, "AR": {"biological_target": "T4, AR (Homo sapiens, UniProt P10275)", "T4 construct": "purchased DiscoverX (Eurofins) SafetyScan44", "T4 sequence (P10275 whole entry)": "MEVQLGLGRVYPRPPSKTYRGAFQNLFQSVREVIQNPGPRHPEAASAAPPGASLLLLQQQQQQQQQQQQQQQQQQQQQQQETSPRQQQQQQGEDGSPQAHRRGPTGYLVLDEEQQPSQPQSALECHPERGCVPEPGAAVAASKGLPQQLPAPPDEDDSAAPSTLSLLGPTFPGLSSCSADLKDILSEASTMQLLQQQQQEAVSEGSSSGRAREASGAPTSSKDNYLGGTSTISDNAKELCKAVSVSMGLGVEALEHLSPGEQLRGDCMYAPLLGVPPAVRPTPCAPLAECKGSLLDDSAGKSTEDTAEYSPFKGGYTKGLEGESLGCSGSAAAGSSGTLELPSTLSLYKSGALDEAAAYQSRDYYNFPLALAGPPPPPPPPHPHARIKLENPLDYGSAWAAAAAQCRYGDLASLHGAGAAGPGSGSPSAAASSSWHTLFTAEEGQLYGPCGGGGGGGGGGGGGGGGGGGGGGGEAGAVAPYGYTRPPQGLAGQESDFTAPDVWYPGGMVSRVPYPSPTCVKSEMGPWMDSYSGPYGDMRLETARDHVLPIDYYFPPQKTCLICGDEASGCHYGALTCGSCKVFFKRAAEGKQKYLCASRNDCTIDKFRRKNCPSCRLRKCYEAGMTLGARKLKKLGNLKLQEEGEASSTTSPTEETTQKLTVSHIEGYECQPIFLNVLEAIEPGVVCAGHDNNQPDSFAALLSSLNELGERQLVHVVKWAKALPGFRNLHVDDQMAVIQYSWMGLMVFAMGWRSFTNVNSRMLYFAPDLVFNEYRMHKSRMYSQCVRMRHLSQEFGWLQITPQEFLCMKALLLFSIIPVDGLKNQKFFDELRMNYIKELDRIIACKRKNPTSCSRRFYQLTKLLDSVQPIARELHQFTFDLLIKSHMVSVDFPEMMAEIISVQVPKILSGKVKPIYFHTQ", "assay": "SafetyScan44", "format": "cell-based", "conditions": "10 μM", "experimental": "as §1"}, "[1]": {"system": "A549 cells co-cultured with CD8 T cells", "assay": "A549 CD8 T cell co-culture, IL-33 expression", "format": "cell-based, human", "conditions": "1 μM, 72 h", "experimental": "A549 cells were seeded into 48-well plate. CD8 T cells were isolated from frozen human PBMC using EasySep Human CD8 T cell Isolation Kit (StemCell Technologies) according to manufacturer’s protocol. A549 were co-cultured with CD8 T cells at 1 to 5 ratios for 72 h. In some cultures, CD8 cells were activated with Human T Cell Activation/Expansion Kit (Miltenyibiotec) according to manufacturer’s protocol. After 72h CD8 cells were removed by rinsing with PBS. Adherent A549 cells were suspended in 100 μl RIPA and IL-33 was assessed in cell lysates using IL-33 Human Uncoated ELISA Kit (Invitrogen). Due to high variability in cell activation the data were normalized (measure for each experimental condition was divided by average of measures for all experimental conditions in the experiment)."}, "[2]": {"system": "co-culture of dermal fibroblasts and keratinocytes", "assay": "BioMAP profiling, KF3CT system", "format": "cell-based, human", "protocol": "BioMap Profiling study was performed by DiscovereX according to service provider’s protocol. In brief cultures or co-cultures of human primary cells were treated with sets of stimulators specific for cell subsets. […] The assays included positive and negative controls as well as vehicle control. The expression of biomarkers specific for each system was measured by ELISA and other techniques."}, "PI3Kβ": {"biological_target": "PI3Kβ (Homo sapiens, UniProt P42338)", "sequence (P42338 whole entry)": "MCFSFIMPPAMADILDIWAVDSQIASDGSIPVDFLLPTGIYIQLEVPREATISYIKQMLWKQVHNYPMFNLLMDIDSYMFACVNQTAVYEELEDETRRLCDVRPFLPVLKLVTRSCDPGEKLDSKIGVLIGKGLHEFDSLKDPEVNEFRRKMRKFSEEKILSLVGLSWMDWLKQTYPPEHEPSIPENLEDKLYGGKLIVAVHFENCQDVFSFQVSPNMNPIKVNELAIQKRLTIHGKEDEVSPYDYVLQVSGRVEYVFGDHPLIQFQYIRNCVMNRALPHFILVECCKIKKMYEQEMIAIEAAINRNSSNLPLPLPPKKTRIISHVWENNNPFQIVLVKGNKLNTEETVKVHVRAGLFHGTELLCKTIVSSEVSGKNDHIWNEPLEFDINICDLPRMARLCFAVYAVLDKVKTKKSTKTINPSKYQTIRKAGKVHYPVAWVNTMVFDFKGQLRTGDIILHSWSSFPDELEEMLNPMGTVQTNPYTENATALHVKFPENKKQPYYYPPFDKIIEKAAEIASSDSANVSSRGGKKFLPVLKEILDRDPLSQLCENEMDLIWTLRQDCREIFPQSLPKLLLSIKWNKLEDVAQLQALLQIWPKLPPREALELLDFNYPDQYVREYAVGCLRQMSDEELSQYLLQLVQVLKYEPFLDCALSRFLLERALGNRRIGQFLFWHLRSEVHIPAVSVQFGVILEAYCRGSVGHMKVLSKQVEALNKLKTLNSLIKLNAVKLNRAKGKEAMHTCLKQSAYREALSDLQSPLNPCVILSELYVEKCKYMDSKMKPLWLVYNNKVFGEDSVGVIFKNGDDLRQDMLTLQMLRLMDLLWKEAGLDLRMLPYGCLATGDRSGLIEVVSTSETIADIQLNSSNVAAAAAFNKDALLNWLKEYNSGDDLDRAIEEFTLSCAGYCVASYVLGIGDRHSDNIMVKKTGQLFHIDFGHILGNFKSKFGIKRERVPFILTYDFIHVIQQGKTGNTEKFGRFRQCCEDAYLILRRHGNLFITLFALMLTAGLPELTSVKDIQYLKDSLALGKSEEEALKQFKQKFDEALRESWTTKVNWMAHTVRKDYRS", "assay": "KINOMEScan competitive binding assay, Kd", "set-up": "purchased Discoverex (KINOMEscan service)", "experimental": "(§2) The inhibitor-kinase binding affinity was assessed in KINOMEscan™ assay (Discoverex) according to service provider’s protocol. In brief, in this binding assay the studied compound in solution is incubated with DNA-tagged kinase and kinase active-site directed ligand bound to the beads. The compound competes for binding to kinase with the immobilized ligand. After incubation beads are removed from the solution and kinase bound to ligand is quantified by qPCR. The strength of compound binding is determined based on its ability to block kinase-ligand binding. 11-point 3-fold serial dilution of CPL302-253 was used in order to determine its binding constants (Kd) against different isotypes of class I PI3K. The single concentration of CPL302-253 was used in order to determine its specificity in abroad panel of 468 human kinases. The measure of compounds affinity to each kinase in the panel was the percentage of kinase activity inhibition by tested ligand in comparison to the control."}, "PI3Kα": {"biological_target": "PI3Kα (Homo sapiens, UniProt P42336)", "sequence (P42336 whole entry)": "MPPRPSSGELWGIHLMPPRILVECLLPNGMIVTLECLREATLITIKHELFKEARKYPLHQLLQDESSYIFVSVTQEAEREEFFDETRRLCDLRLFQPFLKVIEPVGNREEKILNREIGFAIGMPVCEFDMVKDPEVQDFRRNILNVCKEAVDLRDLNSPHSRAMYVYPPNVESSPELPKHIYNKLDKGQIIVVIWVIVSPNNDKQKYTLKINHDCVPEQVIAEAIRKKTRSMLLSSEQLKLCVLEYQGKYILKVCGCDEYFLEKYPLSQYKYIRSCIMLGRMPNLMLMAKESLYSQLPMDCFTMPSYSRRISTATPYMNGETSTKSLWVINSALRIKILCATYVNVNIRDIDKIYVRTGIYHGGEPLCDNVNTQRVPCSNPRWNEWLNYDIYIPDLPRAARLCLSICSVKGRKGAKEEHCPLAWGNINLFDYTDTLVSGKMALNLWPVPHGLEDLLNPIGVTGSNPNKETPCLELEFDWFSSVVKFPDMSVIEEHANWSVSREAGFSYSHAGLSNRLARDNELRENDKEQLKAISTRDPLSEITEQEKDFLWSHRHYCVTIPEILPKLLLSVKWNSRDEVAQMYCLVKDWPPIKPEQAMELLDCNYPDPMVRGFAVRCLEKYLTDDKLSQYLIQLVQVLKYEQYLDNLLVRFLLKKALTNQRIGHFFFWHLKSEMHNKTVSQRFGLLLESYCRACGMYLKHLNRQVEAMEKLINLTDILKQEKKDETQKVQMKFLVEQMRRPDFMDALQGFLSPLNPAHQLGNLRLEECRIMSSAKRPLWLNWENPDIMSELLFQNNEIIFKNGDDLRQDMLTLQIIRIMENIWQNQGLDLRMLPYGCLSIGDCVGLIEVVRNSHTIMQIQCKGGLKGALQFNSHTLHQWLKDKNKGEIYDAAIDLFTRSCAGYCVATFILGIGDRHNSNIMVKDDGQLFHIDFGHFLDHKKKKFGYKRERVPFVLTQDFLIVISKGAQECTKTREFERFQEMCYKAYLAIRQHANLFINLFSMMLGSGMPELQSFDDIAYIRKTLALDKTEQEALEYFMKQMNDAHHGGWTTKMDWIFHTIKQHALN", "assay": "KINOMEScan competitive binding assay, Kd", "set-up": "purchased Discoverex (KINOMEscan service)", "experimental": "as §2"}, "PI3Kγ": {"biological_target": "PI3Kγ (Homo sapiens, UniProt P48736)", "assay": "KINOMEScan competitive binding assay, Kd", "set-up": "purchased Discoverex (KINOMEscan service)", "experimental": "as §2"}, "basophils": {"system": "basophils", "assay": "Basophils activation (Flow CAST Basophil Activation Test)", "format": "cell-based, human", "conditions": "for IC50: anti-FcεRI antibody; for IgE (basophil activation, Fig 4D): concentration 0 = 100", "experimental": "The study was performed using Flow CAST Basophil Activation Test (Buhlmann) according to manufacturer’s protocol with modifications. In brief to U bottom 96-well plate 50 μl of stimulus solution (stimulating antibody specific for the high-affinity IgE receptor FcεRI) or assay bufferwas added. Subsequently to some wells, 50 μl of inhibitor at different concentrations in assay buffer was added. In the next step 50 μl of EDTA collected fresh human blood was added to each well followed by 50 μl of staining reagent (diluted 2:3 in assay buffer). The cells were incubated for 25 min at 37°Cin humidified incubator in the presence of 5% CO2. After incubation cells were centrifuged and erythrocytes were lysed with pre-warmed (18–28°C) Lysing Reagent. After centrifugation cells were suspended in Wash Buffer and analysed by FACSCalibur. Data were analysed using CellQuestPro and FlowJo software."}, "neutrophils": {"system": "neutrophils", "assay": "Neutrophils IL-8 production", "format": "cell-based, human", "conditions": "6 h, 1 μM", "experimental": "Neutrophils were isolated using EasySep Direct Human Neutrophil Isolation Kit (StemCell Technologies) from fresh whole blood of healthy donors by magnetic bead isolation according to manufacturer’s protocol. The cells were cultured in AIM V medium (Gibco). After 30 min pre-treatment with CPL302-253 (1 μM) neutrophils were stimulated with Cigarette Smoke Extract (CSE) (Murty Laboratories) at 100 μg/ml or LPS from E. coli O55:B5 (Sigma-Aldrich) at 1 μg/ml. After 6 h of incubation the culture supernatants were collected and IL-8 production was measured using IL-8 Human Uncoated ELISA Kit (Invitrogen) according to manufacturer’s protocol"}, "CD8 T cells": {"system": "CD8 T cells", "assay": "CD8 T cell activation, IFNγ production", "format": "cell-based, human", "conditions": "for IFNγ release (Fig 3C), single replicates: activated CD8 T cells, 48 h", "experimental": "CD8 T cells were isolated from human frozen PBMC using EasySep Human CD8 T cell Isolation Kit (StemCell Technologies) according to manufacturer’s protocol and cultured in AIM V medium (Gibco). To cell culture different concentrations of CPL302-253 were added. The cells were activated with Human T Cell Activation/Expansion Kit (Miltenyibiotec) according to manufacturer’s protocol. IFNγ production was measured after 48 h of activation in culture supernatants using IFNγ Human Uncoated ELISA Kit (Invitrogen) according to manufacturer’s protocol."}}, "note": "Values joined by “and” are separate entries in the source; they are usually repeats but may differ in a detail not shown here. Identical values can stand only once. Like-named read-outs stand apart in the source and are kept apart here.", "data": [{"smiles": "CC(C)(C)N1CCN(Cc2cc3nc(-c4cncc5[nH]ccc45)cc(N4CCOCC4)n3n2)CC1", "note": "[CPL302-253]", "values": [{"measurement": "% Response HTR2B Agonist", "setting": "HTR2B; Agonist mode", "result": 1.5, "unit": "%"}, {"measurement": "% Response HTR2B Antagonist", "setting": "HTR2B; Antagonist mode", "result": 12.6, "unit": "%"}, {"measurement": "% Response GABAA Blocker", "setting": "GABAA; Blocker mode", "result": 1.4, "unit": "%"}, {"measurement": "% Response GABAA Opener", "setting": "GABAA; Opener mode", "result": -2.3, "unit": "%"}, {"measurement": "% Response HRH2 Agonist", "setting": "HRH2; Agonist mode", "result": 0.6, "unit": "%"}, {"measurement": "% Response HRH2 Antagonist", "setting": "HRH2; Antagonist mode", "result": 4.2, "unit": "%"}, {"measurement": "% Response ADRB2 Agonist", "setting": "ADRB2; Agonist mode", "result": 0.5, "unit": "%"}, {"measurement": "% Response ADRB2 Antagonist", "setting": "ADRB2; Antagonist mode", "result": 17.7, "unit": "%"}, {"measurement": "% Response AR Agonist", "setting": "AR; Agonist mode", "result": -0.7, "unit": "%"}, {"measurement": "% Response AR Antagonist", "setting": "AR; Antagonist mode", "result": 8.5, "unit": "%"}, {"measurement": "IL-33 expression, normalized (Fig 3D), single replicates", "setting": "[1]; A549 CD8 A (activated CD8), divided by average of all conditions", "result": "0.4059 and 0.7122 and 0.4707"}, {"measurement": "IL-33 expression in co-cultures", "setting": "[1]; A549 with activated CD8 cells", "result": "strong inhibition of IL-33 expression"}, {"measurement": "concentration inducing decrease of Plasminogen Activator Inhibitor-1 expression", "setting": "[2]", "result": "≥ 150", "unit": "nM"}, {"measurement": "decrease of Plasminogen Activator Inhibitor-1 expression, effect size", "setting": "[2]", "result": "lower than 0.2 log10"}, {"measurement": "Kd", "setting": "PI3Kβ", "result": 390, "unit": "nM"}, {"measurement": "Kd", "setting": "PI3Kα", "result": 1900, "unit": "nM"}, {"measurement": "Kd", "setting": "PI3Kγ", "result": 4.8, "unit": "µM"}, {"measurement": "IC50", "setting": "basophils; 25 min, human whole blood, 25 min, read-out: IC50 CD63 expression after basophils activation", "result": 36, "unit": "nM"}, {"measurement": "IgE (basophil activation, Fig 4D)", "setting": "basophils; Concentration 1 (unit not given)", "result": 93.65}, {"measurement": "IgE (basophil activation, Fig 4D)", "setting": "basophils; Concentration 3 (unit not given)", "result": 103.18}, {"measurement": "IgE (basophil activation, Fig 4D)", "setting": "basophils; Concentration 10 (unit not given)", "result": 85.97}, {"measurement": "IgE (basophil activation, Fig 4D)", "setting": "basophils; Concentration 33 (unit not given)", "result": 51.03}, {"measurement": "IgE (basophil activation, Fig 4D)", "setting": "basophils; Concentration 100 (unit not given)", "result": 22}, {"measurement": "IgE (basophil activation, Fig 4D)", "setting": "basophils; Concentration 333 (unit not given)", "result": 3.87}, {"measurement": "IgE (basophil activation, Fig 4D)", "setting": "basophils; Concentration 1000 (unit not given)", "result": -1.11}, {"measurement": "IgE (basophil activation, Fig 4D)", "setting": "basophils; Concentration 3333 (unit not given)", "result": 5.06}, {"measurement": "IgE (basophil activation, Fig 4D)", "setting": "basophils; Concentration 10000 (unit not given)", "result": -1.49}, {"measurement": "IC50", "setting": "basophils; Homo sapiens, basophil CD63 expression, read-out: IC50 (Fig 4D, printed in the picture)", "result": 36.2, "unit": "nM"}, {"measurement": "IL-8 release (Fig 4B), single replicates", "setting": "neutrophils; 1 μg/ml LPS", "result": "471 and 860 and 464"}, {"measurement": "IL-8 release (Fig 4A), single replicates", "setting": "neutrophils; 100 μg/ml CSE", "result": "378 and 136 and 362"}, {"measurement": "IL-8 production by neutrophils", "setting": "neutrophils; after CSE or LPS stimulation", "result": "reduced IL-8 production"}, {"measurement": "concentration at which IFNγ production was blocked", "setting": "CD8 T cells; CD8 T cells after TCR engagement", "result": 1, "unit": "nM"}, {"measurement": "IFNγ release (Fig 3C), single replicates", "setting": "CD8 T cells; concentration 1 (unit not given)", "result": "418.61 and 469.87 and 245.35"}, {"measurement": "IFNγ release (Fig 3C), single replicates", "setting": "CD8 T cells; concentration 10 (unit not given)", "result": "400.4 and 276.31 and 203.71"}, {"measurement": "IFNγ release (Fig 3C), single replicates", "setting": "CD8 T cells; concentration 100 (unit not given)", "result": "219.02 and 101.31 and 52.94"}, {"measurement": "IFNγ release (Fig 3C), single replicates", "setting": "CD8 T cells; concentration 10000, first column (unit not printed)", "result": "55.96 and 7.95 and 23.25"}, {"measurement": "IFNγ release (Fig 3C), single replicates", "setting": "CD8 T cells; concentration 10000, second column (unit not printed)", "result": "155.93 and 70.92 and 72.2"}]}]}
